Experiment: refractive index (Na D-line) (dimensionless); xn = mol fraction of the nth substance listed
Settings: 101 kPa, Liquid, Standard Abbe refractometry

C=C[Si](C)(C)O[Si](C)(C)C=C [1,3-diethenyl-1,1,3,3-tetramethyldisiloxane] + CCc1ccccc1
refractive index
Settings | 283.15 K | 288.15 K | 293.15 K | 298.15 K | 303.15 K
x1 = 0.0501 | 1.49399 | 1.49133 | 1.48864 | 1.48591 | 1.48318
x1 = 0.1001 | 1.48737 | 1.48473 | 1.48204 | 1.47931 | 1.4766
x1 = 0.1499 | 1.48124 | 1.47856 | 1.47587 | 1.47319 | 1.47044
x1 = 0.2001 | 1.47548 | 1.47282 | 1.47013 | 1.46745 | 1.46472
x1 = 0.25 | 1.47011 | 1.46746 | 1.46476 | 1.46206 | 1.45934
x1 = 0.3 | 1.46506 | 1.46243 | 1.45974 | 1.45705 | 1.45432
x1 = 0.3499 | 1.46032 | 1.45769 | 1.45502 | 1.45233 | 1.4496
x1 = 0.4 | 1.45589 | 1.45324 | 1.45057 | 1.44786 | 1.44516
x1 = 0.4501 | 1.45171 | 1.44905 | 1.44639 | 1.44368 | 1.44097
x1 = 0.5 | 1.44774 | 1.44509 | 1.44243 | 1.43975 | 1.43705
x1 = 0.5503 | 1.44396 | 1.44135 | 1.43866 | 1.43599 | 1.43331
x1 = 0.6 | 1.44044 | 1.43779 | 1.43514 | 1.43246 | 1.42979
x1 = 0.6501 | 1.43706 | 1.43444 | 1.43177 | 1.42909 | 1.42643
x1 = 0.6999 | 1.43392 | 1.43128 | 1.4286 | 1.42594 | 1.42325
x1 = 0.7502 | 1.43084 | 1.4282 | 1.42555 | 1.42288 | 1.42022
x1 = 0.8001 | 1.42794 | 1.42531 | 1.42264 | 1.41999 | 1.41732
x1 = 0.85 | 1.42518 | 1.42258 | 1.41991 | 1.41723 | 1.41458
x1 = 0.8999 | 1.42257 | 1.41995 | 1.41729 | 1.41464 | 1.41198
x1 = 0.9498 | 1.42013 | 1.41752 | 1.41486 | 1.41219 | 1.40954
x1 = 1 | 1.41762 | 1.41498 | 1.41232 | 1.40969 | 1.40704

C=C[Si](C)(C)O[Si](C)(C)C=C [1,3-diethenyl-1,1,3,3-tetramethyldisiloxane] + COc1ccccc1
refractive index
Settings | 283.15 K | 288.15 K | 293.15 K | 298.15 K | 303.15 K
x1 = 0.0501 | 1.51284 | 1.51027 | 1.50766 | 1.50499 | 1.50234
x1 = 0.1 | 1.50406 | 1.5015 | 1.49885 | 1.49617 | 1.49356
x1 = 0.15 | 1.49596 | 1.49337 | 1.49073 | 1.48807 | 1.48543
x1 = 0.2004 | 1.48841 | 1.48578 | 1.48317 | 1.48051 | 1.47786
x1 = 0.2499 | 1.48153 | 1.47893 | 1.47631 | 1.47362 | 1.47098
x1 = 0.3 | 1.47505 | 1.47247 | 1.46982 | 1.46716 | 1.4645
x1 = 0.35 | 1.46908 | 1.46651 | 1.46384 | 1.46116 | 1.45851
x1 = 0.3997 | 1.46353 | 1.46092 | 1.45829 | 1.4556 | 1.45295
x1 = 0.4499 | 1.45831 | 1.45568 | 1.45303 | 1.45034 | 1.4477
x1 = 0.5001 | 1.45338 | 1.45077 | 1.44813 | 1.44544 | 1.44279
x1 = 0.5499 | 1.44883 | 1.4462 | 1.44358 | 1.44089 | 1.43823
x1 = 0.6 | 1.4445 | 1.44188 | 1.43925 | 1.43657 | 1.43393
x1 = 0.6499 | 1.44046 | 1.43782 | 1.43521 | 1.43252 | 1.42986
x1 = 0.6999 | 1.43664 | 1.43403 | 1.43139 | 1.4287 | 1.42604
x1 = 0.7499 | 1.43304 | 1.43043 | 1.42778 | 1.4251 | 1.42244
x1 = 0.8 | 1.42961 | 1.42699 | 1.42434 | 1.42166 | 1.41901
x1 = 0.8499 | 1.42639 | 1.42377 | 1.42112 | 1.41846 | 1.4158
x1 = 0.8998 | 1.42333 | 1.4207 | 1.41806 | 1.4154 | 1.41277
x1 = 0.9499 | 1.42042 | 1.41779 | 1.41515 | 1.41251 | 1.40987
x1 = 1 | 1.41766 | 1.415 | 1.41236 | 1.4097 | 1.40707

C=C[Si](C)(C)O[Si](C)(C)C=C [1,3-diethenyl-1,1,3,3-tetramethyldisiloxane] + Clc1ccccc1
refractive index
Settings | 283.15 K | 288.15 K | 293.15 K | 298.15 K | 303.15 K
x1 = 0.05 | 1.51909 | 1.51642 | 1.51366 | 1.51088 | 1.50802
x1 = 0.0998 | 1.50933 | 1.5066 | 1.50385 | 1.50103 | 1.49821
x1 = 0.15 | 1.50029 | 1.49759 | 1.49487 | 1.492 | 1.48923
x1 = 0.1996 | 1.49216 | 1.48946 | 1.48671 | 1.48389 | 1.48103
x1 = 0.25 | 1.4846 | 1.48187 | 1.47913 | 1.47637 | 1.47349
x1 = 0.2999 | 1.47766 | 1.47495 | 1.47223 | 1.46943 | 1.46663
x1 = 0.35 | 1.47122 | 1.46854 | 1.46582 | 1.46303 | 1.46019
x1 = 0.3999 | 1.46527 | 1.46262 | 1.4599 | 1.45712 | 1.45432
x1 = 0.4496 | 1.45981 | 1.45712 | 1.45441 | 1.45167 | 1.44883
x1 = 0.4999 | 1.45464 | 1.45197 | 1.44926 | 1.4465 | 1.4437
x1 = 0.5499 | 1.44985 | 1.44716 | 1.44446 | 1.4417 | 1.43891
x1 = 0.6 | 1.44533 | 1.44268 | 1.43999 | 1.43722 | 1.43446
x1 = 0.6469 | 1.44138 | 1.4387 | 1.43603 | 1.43329 | 1.43053
x1 = 0.6998 | 1.43721 | 1.43455 | 1.43185 | 1.42911 | 1.42638
x1 = 0.7499 | 1.43345 | 1.4308 | 1.42812 | 1.42542 | 1.4227
x1 = 0.7997 | 1.42994 | 1.42729 | 1.42463 | 1.42193 | 1.41923
x1 = 0.8499 | 1.42661 | 1.42395 | 1.42129 | 1.41862 | 1.41593
x1 = 0.8996 | 1.4235 | 1.42083 | 1.41817 | 1.4155 | 1.41283
x1 = 0.9497 | 1.4205 | 1.41785 | 1.4152 | 1.41257 | 1.40991
x1 = 1 | 1.41767 | 1.415 | 1.41237 | 1.40973 | 1.40708

C=C[Si](C)(C)O[Si](C)(C)C=C [1,3-diethenyl-1,1,3,3-tetramethyldisiloxane] + Fc1ccccc1
refractive index
Settings | 283.15 K | 288.15 K | 293.15 K | 298.15 K | 303.15 K
x1 = 0.05 | 1.46591 | 1.46302 | 1.4601 | 1.45724 | 1.45427
x1 = 0.1 | 1.46088 | 1.45799 | 1.4551 | 1.45222 | 1.44927
x1 = 0.15 | 1.45637 | 1.45349 | 1.45063 | 1.44775 | 1.44482
x1 = 0.1993 | 1.45237 | 1.44949 | 1.44664 | 1.44378 | 1.44083
x1 = 0.25 | 1.44858 | 1.44572 | 1.44288 | 1.44002 | 1.43708
x1 = 0.2999 | 1.44521 | 1.44238 | 1.43954 | 1.43671 | 1.43382
x1 = 0.35 | 1.44212 | 1.43928 | 1.43649 | 1.43366 | 1.43075
x1 = 0.4 | 1.43929 | 1.43648 | 1.43368 | 1.43086 | 1.42798
x1 = 0.45 | 1.43671 | 1.4339 | 1.43109 | 1.42829 | 1.42546
x1 = 0.5 | 1.43427 | 1.43147 | 1.42871 | 1.42592 | 1.42309
x1 = 0.5501 | 1.43205 | 1.42925 | 1.42651 | 1.42374 | 1.42092
x1 = 0.6 | 1.42996 | 1.42721 | 1.42446 | 1.42171 | 1.41891
x1 = 0.6501 | 1.42804 | 1.4253 | 1.42257 | 1.41982 | 1.41705
x1 = 0.7 | 1.42627 | 1.42353 | 1.4208 | 1.41808 | 1.41532
x1 = 0.7501 | 1.42458 | 1.42185 | 1.41913 | 1.41642 | 1.41369
x1 = 0.8 | 1.42302 | 1.42031 | 1.41762 | 1.41493 | 1.41219
x1 = 0.85 | 1.42152 | 1.41883 | 1.41615 | 1.41349 | 1.4108
x1 = 0.8998 | 1.42015 | 1.41747 | 1.4148 | 1.41213 | 1.40945
x1 = 0.95 | 1.41882 | 1.41617 | 1.41352 | 1.41087 | 1.40819
x1 = 1 | 1.41758 | 1.41493 | 1.41227 | 1.40963 | 1.40695
